From patent publication US12685726B2, “Sulfoximines as inhibitors of NaV1.8” (Gruenenthal GmbH, priority 2022, dated 2026) come the findings set out here.

In the assay the target is T1, human NaV 1.8 (Homo sapiens, UniProt Q9Y5Y9).
T1 construct: expressed in transfected cells; host or cells: HEK (recombinant cell line)
T1 sequence (Q9Y5Y9 whole entry): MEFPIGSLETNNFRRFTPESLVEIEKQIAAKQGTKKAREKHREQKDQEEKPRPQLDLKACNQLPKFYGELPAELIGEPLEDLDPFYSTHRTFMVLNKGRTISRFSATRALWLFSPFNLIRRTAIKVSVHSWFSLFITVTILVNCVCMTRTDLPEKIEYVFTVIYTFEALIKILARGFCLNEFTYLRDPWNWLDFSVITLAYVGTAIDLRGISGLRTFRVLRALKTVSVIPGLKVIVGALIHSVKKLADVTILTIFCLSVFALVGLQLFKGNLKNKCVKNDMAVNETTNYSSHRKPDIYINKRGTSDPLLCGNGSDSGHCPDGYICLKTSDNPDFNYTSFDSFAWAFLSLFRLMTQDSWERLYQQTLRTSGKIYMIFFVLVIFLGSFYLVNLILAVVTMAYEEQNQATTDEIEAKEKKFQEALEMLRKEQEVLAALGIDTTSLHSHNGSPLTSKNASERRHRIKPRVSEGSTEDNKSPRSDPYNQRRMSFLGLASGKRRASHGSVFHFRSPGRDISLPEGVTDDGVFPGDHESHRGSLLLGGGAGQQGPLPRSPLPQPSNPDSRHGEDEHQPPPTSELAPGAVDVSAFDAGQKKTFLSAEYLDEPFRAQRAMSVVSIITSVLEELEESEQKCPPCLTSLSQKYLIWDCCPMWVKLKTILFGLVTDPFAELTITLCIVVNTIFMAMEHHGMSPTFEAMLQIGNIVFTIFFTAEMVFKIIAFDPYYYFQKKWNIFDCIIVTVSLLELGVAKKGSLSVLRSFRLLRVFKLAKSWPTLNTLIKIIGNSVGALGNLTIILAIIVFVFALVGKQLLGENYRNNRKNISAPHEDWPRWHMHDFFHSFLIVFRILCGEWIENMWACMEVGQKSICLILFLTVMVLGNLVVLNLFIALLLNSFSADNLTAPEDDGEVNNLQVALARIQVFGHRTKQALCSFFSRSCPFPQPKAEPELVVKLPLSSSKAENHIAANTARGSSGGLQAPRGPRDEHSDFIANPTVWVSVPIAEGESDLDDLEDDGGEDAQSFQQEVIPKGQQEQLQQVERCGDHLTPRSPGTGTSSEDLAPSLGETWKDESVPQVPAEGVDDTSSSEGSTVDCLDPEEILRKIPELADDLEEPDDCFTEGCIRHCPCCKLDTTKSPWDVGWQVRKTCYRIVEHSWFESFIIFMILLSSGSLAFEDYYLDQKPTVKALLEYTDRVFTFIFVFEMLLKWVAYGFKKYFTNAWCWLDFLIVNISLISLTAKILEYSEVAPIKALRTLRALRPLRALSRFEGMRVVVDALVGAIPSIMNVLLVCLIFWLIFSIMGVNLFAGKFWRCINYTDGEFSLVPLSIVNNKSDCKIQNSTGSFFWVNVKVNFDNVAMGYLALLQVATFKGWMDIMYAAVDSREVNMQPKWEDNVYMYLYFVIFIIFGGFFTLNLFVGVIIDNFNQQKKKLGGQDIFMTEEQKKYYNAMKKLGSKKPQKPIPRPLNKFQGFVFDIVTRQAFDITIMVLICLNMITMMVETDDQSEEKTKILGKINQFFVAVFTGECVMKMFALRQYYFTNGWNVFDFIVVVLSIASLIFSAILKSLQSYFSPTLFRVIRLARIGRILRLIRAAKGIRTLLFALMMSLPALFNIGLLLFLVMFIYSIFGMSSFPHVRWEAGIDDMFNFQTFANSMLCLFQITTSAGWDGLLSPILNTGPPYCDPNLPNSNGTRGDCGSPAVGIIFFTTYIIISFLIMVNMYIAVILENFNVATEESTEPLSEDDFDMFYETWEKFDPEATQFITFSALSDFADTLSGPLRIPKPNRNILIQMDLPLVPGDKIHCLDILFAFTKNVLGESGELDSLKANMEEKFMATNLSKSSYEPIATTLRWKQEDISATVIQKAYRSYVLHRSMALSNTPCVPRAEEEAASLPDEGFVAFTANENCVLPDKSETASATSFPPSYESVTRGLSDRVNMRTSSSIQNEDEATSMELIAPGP
In words: Automated whole-cell patch clamp (Qube384) voltage-clamp recordings of sodium currents in HEK-NaV1.8 cell line. The class given is cell-based. Particulars: read-out: Potency category (human NaV 1.8 IC50). The method, then:
Electrophysiology: Voltage-Clamp Recordings
The following NaV1.8 recombinant cell line was used for recordings: HEK-NaV1.8 (NM_006514.1) with b3 (NM_018400.3).
Sodium currents were measured using the patch clamp technique in the whole-cell configuration using the Qube384 (Sophion A/S, Copenhagen, Denmark) automated voltage clamp platform. “Multi hole” plates were used for the cell line expressing NaV1.8 while “single hole” plates were used for the recombinant cell lines expressing the other subtypes. Appropriate filters (for minimum seal resistance and minimum current size) and series resistance compensation (for high quality sodium channel recordings) were applied. Data was collected at ambient room temperature or 19° C.
The recording extracellular solution contained (in mM): NaCl 145 mM, KCl 4 mM, CaCl2 2 mM, MgCl2 1 mM, HEPES 10 mM, Glucose 10 mM, pH 7.4 (NaOH). The intracellular recording solution contained (in mM): CsF 120 mM, CsCl 20 mM, NaCl 10 mM, EGTA 10 mM, HEPES 10 mM, pH 7.2 (CsOH). Currents were recorded at 25 kHz sampling frequency and filtered at 5 kHz. Series resistance compensation was applied at 65%.
Vehicle (VEH) is the control condition where cells are exposed to 0.3% DMSO without compound. All runs include VEH controls being exposed to the same voltage protocols to assess non-compound related phenomena such as run down and then used to isolate compound dependent effects on currents.
To check for state-dependent inhibition, the following voltage-sequence was applied every 20 seconds:
From a resting membrane potential of −120 mV, the first test pulse (P1; 20 ms to −10 mV) was applied to check for channels in the Resting State followed by a brief recovery (100 ms to −120 mV), then holding the membrane voltage to V1/2 (4 seconds at voltage to obtain half the channel at Rest and half Inactivated) with a subsequent second test pulse (P2; 20 ms to −10 mV) to check for channels in the Inactivated State, followed by another brief recovery (20 ms to −120 mV) and a final third test pulse (P3; 20 ms to −10 mV) to check for recovered channels.
To check for frequency-dependent inhibition, a 10 Hz protocol and a 20 Hz protocol were applied; namely,
From a resting membrane potential of −120 mV, 40-pulses (10 ms to −10 mV) was applied at 10 Hz (at 100 ms between pulses) and then at 20 Hz (at 50 ms between pulses).
Each parameter was recorded (P1, P2, P3, P40 from 10 Hz and P40 from 20 Hz) during a control period (lasting 5 minutes) when establishing the baseline and during compound period (lasting ~12 minutes) when test compound (or vehicle) was applied. For each parameter, the value at the end of the compound period was normalized to the vehicle baseline; as follows
To adjust for any variance in the Na^+ current signal during the compound period (owing to cumulative inactivation independent of compound or shifts in biophysics over time), a dedicated segment of the recording wells in each 384 plate were dedicated to having only vehicle exposure. These vehicle-only recordings were used to correct for any apparent “run-up” or “run-down” in the experiment.
The adjusted inhibition was calculated as follows: […]
Percent inhibition was determined and IC50 values were calculated using a 4 parameter logistic model within XLFit Software (IDBS, Boston MA): F
[formula] where A and B are the maximal and minimum inhibition respectively, C is the IC50 concentration and D is the (Hill) slope.
Turning to `CC1(Cn2nc(C3(C(F)(F)F)CC3)c(C(F)(F)F)c2C(=O)Nc2ccnc(S(C)(=N)=O)c2)CC(F)(F)C1` (single isomer, unassigned) [Example 144b, 1-((3,3-Difluoro-1-methylcyclobutyl)methyl)-N-(2-(S-methylsulfonimidoyl)pyridin-4-yl)-4-(trifluoromethyl)-3-(1-(trifluoromethyl)cyclopropyl)-1H-pyrazole-5-carboxamide], the concentration for half-maximal inhibition (IC50) is not above 100 nM.
Then `CC1(Cn2nc(C3(F)CC3)c(C(F)(F)F)c2C(=O)Nc2cccc(S(C)(=O)=NC(=O)C3COC3)c2)CC(F)(F)C1` (single isomer, unassigned) [Example 150a, 1-((3,3-Difluoro-1-methylcyclobutyl)methyl)-3-(1-fluorocyclopropyl)-N-(3-(S-methyl-N-(oxetane-3-carbonyl)sulfonimidoyl)phenyl)-4-(trifluoromethyl)-1H-pyrazole-5-carboxamide], with not above 100 nM; and `CC1(Cn2nc(C34CC(C3)C4(F)F)c(C(F)(F)F)c2C(=O)Nc2ccnc(S(C)(=N)=O)c2)CC(F)(F)C1` (single isomer, unassigned) [Example 114, 1-((3,3-Difluoro-1-methylcyclobutyl)methyl)-3-(2,2-difluorobicyclo[1.1.1]pentan-1-yl)-N-(2-(S-methylsulfonimidoyl)pyridin-4-yl)-4-(trifluoromethyl)-1H-pyrazole-5-carboxamide], with not above 100 nM; and `CC1(Cn2nc(C34CC(F)(C3)C4)c(C(F)F)c2C(=O)Nc2ccc(F)c(S(C)(=N)=O)c2)CC(F)(F)C1` (single isomer, unassigned) [Example 138a, 1-((3,3-Difluoro-1-methylcyclobutyl)methyl)-4-(difluoromethyl)-N-(4-fluoro-3-(S-methylsulfonimidoyl)phenyl)-3-(3-fluorobicyclo[1.1.1]pentan-1-yl)-1H-pyrazole-5-carboxamide], with not above 100 nM.
Regarding `CC1(Cn2nc(C3CC3)c(C(F)(F)F)c2C(=O)Nc2cncc(S(C)(=N)=O)c2)CC(F)(F)C1` (single isomer, unassigned) [Example 46a, 3-cyclopropyl-1-((3,3-difluoro-1-methylcyclobutyl)methyl)-N-(5-(S-methylsulfonimidoyl)pyridin-3-yl)-4-(trifluoromethyl)-1H-pyrazole-5-carboxamide], the IC50 was not above 100 nM.
Then `CS(=N)(=O)c1cc(NC(=O)c2c(C(F)(F)F)c(C3CC3)nn2CC23CC(CC2(F)F)C3)ccn1` (single isomer, unassigned) [Example 103a, 3-cyclopropyl-1-((2,2-difluorobicyclo[2.1.1]hexan-1-yl)methyl)-N-(2-(S-methylsulfonimidoyl)pyridin-4-yl)-4-(trifluoromethyl)-1H-pyrazole-5-carboxamide], with not above 100 nM; and `CC1(Cn2nc(C3(C)CC3)c(C(F)(F)F)c2C(=O)Nc2ccnc(S(C)(=N)=O)c2)CC(F)(F)C1` (single isomer, unassigned) [Example 69a, 1-((3,3-difluoro-1-methylcyclobutyl)methyl)-3-(1-methylcyclopropyl)-N-(2-(S-methylsulfonimidoyl)pyridin-4-yl)-4-(trifluoromethyl)-1H-pyrazole-5-carboxamide], with not above 100 nM; and `CC1(Cn2nc(C3CC(F)(F)C3)c(C(F)(F)F)c2C(=O)Nc2ccnc(S(C)(=N)=O)c2)CC(F)(F)C1` (single isomer, unassigned) [Example 57a, 1-((3,3-Difluoro-1-methylcyclobutyl)methyl)-3-(3,3-difluorocyclobutyl)-N-(2-(S-methylsulfonimidoyl)pyridin-4-yl)-4-(trifluoromethyl)-1H-pyrazole-5-carboxamide], with not above 100 nM.
Then `C[S@@](=N)(=O)c1cc(NC(=O)c2c(C(F)(F)F)c(C3CC3)nn2C[C@H]2C(F)(F)C23CC3)ccn1` (single isomer, unassigned) [Example 79a, 3-cyclopropyl-1-((2,2-difluorospiro[2.2]pentan-1-yl)methyl)-N-(2-(S-methylsulfonimidoyl)pyridin-4-yl)-4-(trifluoromethyl)-1H-pyrazole-5-carboxamide], with not above 100 nM; and `CC1(Cn2nc(C3CC4(CC4)C3)c(C(F)(F)F)c2C(=O)Nc2ccnc(S(C)(=N)=O)c2)CC(F)(F)C1` (single isomer, unassigned) [Example 61a, 1-((3,3-Difluoro-1-methylcyclobutyl)methyl)-N-(2-(S-methylsulfonimidoyl)pyridin-4-yl)-3-(spiro[2.3]hexan-5-yl)-4-(trifluoromethyl)-1H-pyrazole-5-carboxamide], with not above 100 nM; and `CC1(Cn2nc(C3CC3)c(C(F)(F)F)c2C(=O)Nc2ccnc(S(C)(=N)=O)c2)CCC(F)(F)C1` (single isomer, unassigned) [Example 29b, 3-Cyclopropyl-1-((3,3-difluoro-1-methylcyclopentyl)methyl)-N-(2-(S-methylsulfonimidoyl)pyridin-4-yl)-4-(trifluoromethyl)-1H-pyrazole-5-carboxamide], with not above 100 nM.
As for `CS(=N)(=O)c1cc(NC(=O)c2c(C(F)(F)F)c(C3CC3)nn2CC2CC3(C2)CC(F)(F)C3)ccn1` (single isomer, unassigned) [Example 27a, 3-cyclopropyl-1-((6,6-difluorospiro[3.3]heptan-2-yl)methyl)-N-(2-(S-methylsulfonimidoyl)pyridin-4-yl)-4-(trifluoromethyl)-1H-pyrazole-5-carboxamide], the IC50 was not above 100 nM.
Then `CC1(Cn2nc(C3CC4(CC4)C3)c(C(F)(F)F)c2C(=O)Nc2ccnc(S(C)(=N)=O)c2)CC(F)(F)C1` (single isomer, unassigned) [Example 61b, 1-((3,3-Difluoro-1-methylcyclobutyl)methyl)-N-(2-(S-methylsulfonimidoyl)pyridin-4-yl)-3-(spiro[2.3]hexan-5-yl)-4-(trifluoromethyl)-1H-pyrazole-5-carboxamide], with not above 100 nM; and `CS(=N)(=O)c1cc(NC(=O)c2c(C(F)(F)F)c(C3CC3)nn2CC2CCC23CNC3)ccn1` (single isomer, unassigned) [Example 153d, 1-((2-Azaspiro[3.3]heptan-5-yl)methyl)-3-cyclopropyl-N-(2-(S-methylsulfonimidoyl)pyridin-4-yl)-4-(trifluoromethyl)-1H-pyrazole-5-carboxamide], with 1000 to 10000 nM; and `CC1(Cn2nc(C34CC(C3)C4)c(C(F)F)c2C(=O)Nc2ccnc(S(C)(=N)=O)c2)CC(F)(F)C1` (single isomer, unassigned) [Example 137b, 3-(Bicyclo[1.1.1]pentan-1-yl)-1-((3,3-difluoro-1-methylcyclobutyl)methyl)-4-(difluoromethyl)-N-(2-(S-methylsulfonimidoyl)pyridin-4-yl)-1H-pyrazole-5-carboxamide], with not above 100 nM.
For the compound `CC1(Cn2nc(C34CC(F)(C3)C4)c(C(F)(F)F)c2C(=O)Nc2cccc(S(C)(=N)=O)c2)CC(F)(F)C1` (single isomer, unassigned) [Example 111a, 1-((3,3-difluoro-1-methylcyclobutyl)methyl)-3-(3-fluorobicyclo[1.1.1]pentan-1-yl)-N-(3-(S-methylsulfonimidoyl)phenyl)-4-(trifluoromethyl)-1H-pyrazole-5-carboxamide], the IC50 is not above 100 nM.
Then `CC1(Cn2nc(C3CC3)c(C(F)(F)F)c2C(=O)Nc2cnnc(S(C)(=N)=O)c2)CC(F)(F)C1` (single isomer, unassigned) [Example 47b, 3-cyclopropyl-1-((3,3-difluoro-1-methylcyclobutyl)methyl)-N-(6-(S-methylsulfonimidoyl)pyridazin-4-yl)-4-(trifluoromethyl)-1H-pyrazole-5-carboxamide], with not above 100 nM.
